CCCc1nc2c(C)cc(-c3nc4ccccc4n3C)cc2n1Cc1ccc(-c2ccccc2C(=O)O)cc1
Conditions	solubility (mole fraction)
in acetone, 278.55 K	4.42e-05
in acetone, 287.45 K	5.71e-05
in acetone, 294.55 K	7.76e-05
in acetone, 303.85 K	9.45e-05
in acetone, 308.75 K	0.000112
in acetone, 316.25 K	0.000141
in acetone, 325.75 K	0.000193
in benzene, 278.55 K	6.95e-05
in benzene, 288.45 K	0.000111
in benzene, 299.85 K	0.000163
in benzene, 307.25 K	0.000236
in benzene, 316.15 K	0.000289
in benzene, 324.35 K	0.000361
in benzene, 333.35 K	0.000488
in chloroform, 278.75 K	0.00533
in chloroform, 289.45 K	0.00624
in chloroform, 296.95 K	0.00701
in chloroform, 298.15 K	0.00725
in chloroform, 303.95 K	0.00747
in chloroform, 308.35 K	0.00771
in chloroform, 313.15 K	0.00799
in dichloromethane, 278.35 K	0.0015
in dichloromethane, 286.55 K	0.00177
in dichloromethane, 293.95 K	0.00205
in dichloromethane, 298.05 K	0.00216
in dichloromethane, 305.25 K	0.00246
in dichloromethane, 308.35 K	0.00261
in dichloromethane, 311.75 K	0.00272
in ethanol, 277.85 K	3.06e-05
in ethanol, 288.45 K	4.57e-05
in ethanol, 298.45 K	6.33e-05
in ethanol, 308.35 K	9e-05
in ethanol, 313.45 K	0.000117
in ethanol, 329.75 K	0.000219
in ethanol, 333.65 K	0.000255
in ethyl acetate, 283.65 K	2.47e-05
in ethyl acetate, 293.35 K	4.17e-05
in ethyl acetate, 303.65 K	5.9e-05
in ethyl acetate, 305.35 K	6.26e-05
in ethyl acetate, 317.95 K	8.83e-05
in ethyl acetate, 329.45 K	0.000123
in ethyl acetate, 333.65 K	0.000148
in isopropanol, 288.45 K	1.55e-05
in isopropanol, 298.05 K	2.77e-05
in isopropanol, 309.55 K	4.1e-05
in isopropanol, 316.55 K	5.62e-05
in isopropanol, 321.55 K	7.41e-05
in isopropanol, 329.55 K	0.000106
in isopropanol, 338.35 K	0.000157
in methanol, 278.45 K	6.03e-05
in methanol, 288.55 K	8.9e-05
in methanol, 299.85 K	0.000132
in methanol, 307.35 K	0.000153
in methanol, 313.25 K	0.000186
in methanol, 324.85 K	0.000271
in methanol, 330.05 K	0.000315
in toluene, 278.65 K	3.55e-05
in toluene, 288.45 K	6.08e-05
in toluene, 300.05 K	8.4e-05
in toluene, 306.35 K	0.000125
in toluene, 316.75 K	0.000169
in toluene, 325.85 K	0.000225
in toluene, 334.55 K	0.000307
